From ChEMBL document CHEMBL4028801, “A multifactorial approach to hepatobiliary transporter assessment enables improved therapeutic compound development” (Toxicol Sci, 2013) come the findings set out here.

Each structure is given as a SMILES string. A value given as a limit tells only on which side of the number the result lay.

In general, IC50 refers to the concentration at which inhibition is half-maximal. One may read the AUC as the area under the concentration-time curve, a measure of exposure.

Data set [1] addresses ATP-binding cassette sub-family C member 2 (Homo sapiens, UniProt Q92887). The experiment in a line: Inhibition of human MRP2 overexpressed in Sf9 cell membrane vesicles assessed as uptake of [3H]-estradiol-17beta-D-glucuronide in presence of ATP and GSH measured after 20 mins by membrane vesicle transport assay.
Data set [2] has as its target ATP-binding cassette sub-family C member 3 (Homo sapiens, UniProt O15438). The experiment in a line: Inhibition of human MRP3 overexpressed in Sf9 insect cell membrane vesicles assessed as uptake of [3H]-estradiol-17beta-D-glucuronide in presence of ATP and GSH measured after 10 mins by membrane vesicle transport assay. It is filed as ADME, cell-based.
A short description of data set [3]: Ratio of drug concentration at steady state in human at 20 to 25 mg/kg, po TID after 8 hrs to IC50 for human BSEP overexpressed in Sf9 insect cells. The data set is classed as ADME, organism-based. Conditions: in vivo.
The nature of data set [4]: Drug concentration at steady state in human at 20 to 25 mg/kg, po TID after 8 hrs. The data set is classed as ADME, organism-based. Conditions: in vivo, read-out: Css.
The target of data set [5] is Bile salt export pump (Homo sapiens, UniProt O95342). The experiment in a line: Inhibition of human BSEP overexpressed in Sf9 cell membrane vesicles assessed as uptake of [3H]-taurocholate in presence of ATP measured after 15 to 20 mins by membrane vesicle transport assay. The data set is classed as ADME, cell-based.
Data set [6] has as its target T1, ATP-binding cassette sub-family C member 4 (Homo sapiens, UniProt O15439).
T1 sequence (O15439 whole entry): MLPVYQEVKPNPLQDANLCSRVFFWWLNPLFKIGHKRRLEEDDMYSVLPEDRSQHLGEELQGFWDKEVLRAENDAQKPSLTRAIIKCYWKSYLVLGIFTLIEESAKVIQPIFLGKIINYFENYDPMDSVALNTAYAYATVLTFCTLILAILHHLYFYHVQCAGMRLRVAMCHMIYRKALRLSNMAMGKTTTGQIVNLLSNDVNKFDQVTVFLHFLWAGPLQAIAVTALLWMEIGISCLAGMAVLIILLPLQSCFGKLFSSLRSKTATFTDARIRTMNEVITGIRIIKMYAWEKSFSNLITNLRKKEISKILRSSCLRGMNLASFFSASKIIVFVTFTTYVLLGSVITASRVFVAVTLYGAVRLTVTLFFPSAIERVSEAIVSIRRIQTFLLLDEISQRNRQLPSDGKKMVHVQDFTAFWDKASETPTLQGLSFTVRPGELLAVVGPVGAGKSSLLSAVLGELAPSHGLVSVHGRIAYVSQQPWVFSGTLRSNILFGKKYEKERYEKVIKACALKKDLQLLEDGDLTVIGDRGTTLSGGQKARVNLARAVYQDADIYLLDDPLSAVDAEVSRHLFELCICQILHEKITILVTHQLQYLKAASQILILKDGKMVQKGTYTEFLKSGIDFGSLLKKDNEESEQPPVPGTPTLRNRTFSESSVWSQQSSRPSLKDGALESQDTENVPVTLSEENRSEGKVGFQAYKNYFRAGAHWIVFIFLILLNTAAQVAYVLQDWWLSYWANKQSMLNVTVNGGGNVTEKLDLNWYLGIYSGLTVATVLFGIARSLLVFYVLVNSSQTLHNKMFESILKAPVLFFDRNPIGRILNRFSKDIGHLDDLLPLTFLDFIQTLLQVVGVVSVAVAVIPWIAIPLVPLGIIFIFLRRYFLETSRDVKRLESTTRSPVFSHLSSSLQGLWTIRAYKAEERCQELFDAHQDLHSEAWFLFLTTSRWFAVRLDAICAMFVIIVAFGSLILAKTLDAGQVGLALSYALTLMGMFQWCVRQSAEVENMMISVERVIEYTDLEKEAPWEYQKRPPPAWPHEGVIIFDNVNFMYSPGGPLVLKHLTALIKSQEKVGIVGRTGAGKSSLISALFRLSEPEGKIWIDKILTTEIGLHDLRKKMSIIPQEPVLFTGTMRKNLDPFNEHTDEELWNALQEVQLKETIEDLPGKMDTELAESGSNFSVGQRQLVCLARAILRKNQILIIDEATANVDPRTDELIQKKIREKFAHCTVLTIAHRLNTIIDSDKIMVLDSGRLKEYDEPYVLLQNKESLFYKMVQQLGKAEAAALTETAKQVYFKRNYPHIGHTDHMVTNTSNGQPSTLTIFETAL
The experiment in a line: Inhibition of human MRP4 overexpressed in Sf9 cell membrane vesicles assessed as uptake of [3H]-estradiol-17beta-D-glucuronide in presence of ATP and GSH measured after 20 mins by membrane vesicle transport assay. The data set is classed as ADME, cell-based.

A short description of data set [7]: AUC in human at 20 to 25 mg/kg, po TID after 8 hrs. It is filed as ADME, organism-based. To be noted: in vivo.
Data set [8] can be described thus: Ratio of drug concentration at steady state in human at 62.5 to 125 mg, po BID after 12 hrs to IC50 for human MRP3 overexpressed in Sf9 insect cells. The data set is classed as ADME, organism-based. Conditions: in vivo.
Data set [9] in a line: AUC in human at 62.5 to 125 mg, po BID after 12 hrs. The data set is classed as ADME, organism-based. To be noted: in vivo.
Data set [10] relates to Homo sapiens. The experiment in a line: Drug concentration at steady state in human at 62.5 to 125 mg, po BID after 12 hrs. It is filed as ADME, organism-based. To be noted: in vivo.
Data set [11] can be described thus: Ratio of drug concentration at steady state in human at 62.5 to 125 mg, po BID after 12 hrs to IC50 for human BSEP overexpressed in Sf9 insect cells. It is filed as ADME, organism-based. To be noted: in vivo.
Data set [12] is described as follows: Ratio of drug concentration at steady state in human at 62.5 to 125 mg, po BID after 12 hrs to IC50 for human MRP4 overexpressed in Sf9 insect cells. Conditions: in vivo. It is filed as ADME, organism-based.
Data set [13] in a line: AUC in human at 400 to 800 mg, po QD after 24 hrs. The data set is classed as ADME, organism-based. To be noted: in vivo.
Data set [14] in a line: Ratio of drug concentration at steady state in human at 400 to 800 mg, po QD after 24 hrs to IC50 for human BSEP overexpressed in Sf9 insect cells. The data set is classed as ADME, organism-based. Conditions: in vivo.
A short description of data set [15]: Drug concentration at steady state in human at 400 to 800 mg, po QD after 24 hrs. The data set is classed as ADME, organism-based. To be noted: in vivo, read-out: Css.
A short description of data set [16]: Drug concentration at steady state in human at 1200 mg administered orally BID up to 2800 mg/day after 12 hrs. It is filed as ADME. To be noted: in vivo, po, read-out: Css.
Data set [17] is described as follows: Ratio of drug concentration at steady state in human at 1200 mg administered orally BID up to 2800 mg/day after 12 hrs to IC50 for human BSEP overexpressed in Sf9 insect cells. The data set is classed as ADME. Conditions: in vivo, po.
Data set [18] can be described thus: AUC in human at 1200 mg administered orally BID up to 2800 mg/day after 12 hrs. Further details: time < 12 hr, dose 1200 mg, route oral. Conditions: in vivo, po. It is filed as ADME.
Data set [19] is described as follows: AUC in human at 300 to 600 mg, po QD after 24 hrs. The data set is classed as ADME, organism-based. To be noted: in vivo.
Data set [20] can be described thus: Ratio of drug concentration at steady state in human at 300 to 600 mg, po QD after 24 hrs to IC50 for human BSEP overexpressed in Sf9 insect cells. It is filed as ADME, organism-based. To be noted: in vivo.
Data set [21] is described as follows: Drug concentration at steady state in human at 300 to 600 mg, po QD after 24 hrs. The data set is classed as ADME, organism-based. Conditions: in vivo, read-out: Css.
Data set [22] can be described thus: Ratio of drug concentration at steady state in human at 300 to 600 mg, po QD after 24 hrs to IC50 for human MRP4 overexpressed in Sf9 insect cells. The data set is classed as ADME, organism-based. Conditions: in vivo.

Sequence of ATP-binding cassette sub-family C member 3 (O15438 whole entry): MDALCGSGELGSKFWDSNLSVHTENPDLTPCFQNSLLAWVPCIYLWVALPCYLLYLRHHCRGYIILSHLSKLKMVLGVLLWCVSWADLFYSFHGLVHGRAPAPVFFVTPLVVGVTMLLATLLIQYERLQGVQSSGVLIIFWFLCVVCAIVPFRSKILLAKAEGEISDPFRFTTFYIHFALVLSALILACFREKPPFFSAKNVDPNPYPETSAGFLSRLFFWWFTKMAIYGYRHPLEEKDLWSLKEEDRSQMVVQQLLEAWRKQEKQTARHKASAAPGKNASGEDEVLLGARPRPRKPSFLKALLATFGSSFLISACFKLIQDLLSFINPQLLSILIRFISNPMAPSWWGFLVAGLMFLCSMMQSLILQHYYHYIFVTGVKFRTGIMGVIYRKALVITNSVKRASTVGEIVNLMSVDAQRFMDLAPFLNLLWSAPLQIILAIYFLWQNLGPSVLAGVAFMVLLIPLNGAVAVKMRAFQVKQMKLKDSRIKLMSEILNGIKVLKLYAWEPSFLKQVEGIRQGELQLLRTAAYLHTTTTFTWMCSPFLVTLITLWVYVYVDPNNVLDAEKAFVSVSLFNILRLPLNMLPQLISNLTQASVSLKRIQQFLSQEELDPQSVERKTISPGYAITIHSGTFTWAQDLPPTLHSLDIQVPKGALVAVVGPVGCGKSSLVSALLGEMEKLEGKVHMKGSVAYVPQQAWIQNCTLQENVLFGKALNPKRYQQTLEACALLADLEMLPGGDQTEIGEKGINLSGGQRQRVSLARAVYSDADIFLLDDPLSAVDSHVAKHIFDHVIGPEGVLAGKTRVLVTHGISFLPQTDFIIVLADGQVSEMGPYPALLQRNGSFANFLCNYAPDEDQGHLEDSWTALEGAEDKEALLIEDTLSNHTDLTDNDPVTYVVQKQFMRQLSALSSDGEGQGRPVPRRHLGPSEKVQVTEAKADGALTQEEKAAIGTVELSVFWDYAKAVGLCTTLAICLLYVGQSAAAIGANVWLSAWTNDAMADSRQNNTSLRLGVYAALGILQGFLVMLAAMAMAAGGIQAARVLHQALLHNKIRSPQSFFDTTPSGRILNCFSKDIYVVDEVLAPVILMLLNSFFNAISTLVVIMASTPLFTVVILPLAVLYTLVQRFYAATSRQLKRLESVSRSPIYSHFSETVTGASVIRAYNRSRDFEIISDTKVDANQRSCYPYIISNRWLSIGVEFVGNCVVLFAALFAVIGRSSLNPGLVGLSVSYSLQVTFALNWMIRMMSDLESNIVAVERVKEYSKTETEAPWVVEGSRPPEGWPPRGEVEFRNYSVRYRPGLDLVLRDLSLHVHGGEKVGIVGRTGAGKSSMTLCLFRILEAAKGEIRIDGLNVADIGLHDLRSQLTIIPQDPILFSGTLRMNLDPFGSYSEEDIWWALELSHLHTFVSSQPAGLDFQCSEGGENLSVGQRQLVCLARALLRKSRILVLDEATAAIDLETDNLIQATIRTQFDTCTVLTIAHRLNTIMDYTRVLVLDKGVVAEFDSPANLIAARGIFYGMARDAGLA
Sequence of ATP-binding cassette sub-family C member 2 (Q92887 whole entry): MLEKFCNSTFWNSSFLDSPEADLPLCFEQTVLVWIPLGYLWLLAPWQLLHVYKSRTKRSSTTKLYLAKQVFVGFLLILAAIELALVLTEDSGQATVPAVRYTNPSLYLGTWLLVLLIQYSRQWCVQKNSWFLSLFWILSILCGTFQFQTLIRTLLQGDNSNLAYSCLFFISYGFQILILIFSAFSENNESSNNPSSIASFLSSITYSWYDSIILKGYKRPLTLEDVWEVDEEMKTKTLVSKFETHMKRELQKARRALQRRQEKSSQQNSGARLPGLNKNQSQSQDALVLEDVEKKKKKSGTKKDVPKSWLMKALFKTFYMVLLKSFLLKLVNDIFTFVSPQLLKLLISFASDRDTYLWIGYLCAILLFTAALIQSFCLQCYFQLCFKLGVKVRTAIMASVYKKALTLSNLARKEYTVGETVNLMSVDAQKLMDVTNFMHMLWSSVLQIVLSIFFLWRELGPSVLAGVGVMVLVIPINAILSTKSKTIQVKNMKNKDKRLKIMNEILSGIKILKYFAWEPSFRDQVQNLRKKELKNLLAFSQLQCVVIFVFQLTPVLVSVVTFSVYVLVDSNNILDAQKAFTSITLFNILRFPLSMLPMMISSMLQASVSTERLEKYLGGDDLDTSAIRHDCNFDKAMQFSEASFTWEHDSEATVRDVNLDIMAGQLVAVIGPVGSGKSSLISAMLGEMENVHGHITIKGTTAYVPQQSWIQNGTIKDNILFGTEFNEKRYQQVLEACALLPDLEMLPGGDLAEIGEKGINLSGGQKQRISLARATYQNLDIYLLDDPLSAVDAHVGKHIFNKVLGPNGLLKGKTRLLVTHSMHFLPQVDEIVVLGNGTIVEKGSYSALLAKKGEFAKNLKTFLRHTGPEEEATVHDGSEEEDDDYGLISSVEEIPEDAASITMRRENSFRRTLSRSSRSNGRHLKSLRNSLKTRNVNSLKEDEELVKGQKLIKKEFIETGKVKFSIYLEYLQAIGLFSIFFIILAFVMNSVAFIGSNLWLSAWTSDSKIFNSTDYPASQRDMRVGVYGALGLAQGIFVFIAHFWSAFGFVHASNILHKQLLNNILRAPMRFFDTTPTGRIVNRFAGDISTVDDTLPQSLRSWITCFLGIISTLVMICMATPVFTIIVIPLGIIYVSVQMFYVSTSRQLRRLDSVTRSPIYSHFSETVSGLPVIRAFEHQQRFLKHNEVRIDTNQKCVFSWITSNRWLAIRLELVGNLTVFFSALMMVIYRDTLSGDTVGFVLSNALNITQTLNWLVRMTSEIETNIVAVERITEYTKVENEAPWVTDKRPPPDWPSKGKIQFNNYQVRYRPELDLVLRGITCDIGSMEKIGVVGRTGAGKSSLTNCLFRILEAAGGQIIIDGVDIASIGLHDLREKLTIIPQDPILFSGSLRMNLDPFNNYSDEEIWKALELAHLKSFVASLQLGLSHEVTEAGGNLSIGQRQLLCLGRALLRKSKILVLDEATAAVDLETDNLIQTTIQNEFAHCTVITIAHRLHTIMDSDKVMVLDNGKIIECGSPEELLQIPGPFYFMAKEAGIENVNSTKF
Sequence of Bile salt export pump (O95342 whole entry): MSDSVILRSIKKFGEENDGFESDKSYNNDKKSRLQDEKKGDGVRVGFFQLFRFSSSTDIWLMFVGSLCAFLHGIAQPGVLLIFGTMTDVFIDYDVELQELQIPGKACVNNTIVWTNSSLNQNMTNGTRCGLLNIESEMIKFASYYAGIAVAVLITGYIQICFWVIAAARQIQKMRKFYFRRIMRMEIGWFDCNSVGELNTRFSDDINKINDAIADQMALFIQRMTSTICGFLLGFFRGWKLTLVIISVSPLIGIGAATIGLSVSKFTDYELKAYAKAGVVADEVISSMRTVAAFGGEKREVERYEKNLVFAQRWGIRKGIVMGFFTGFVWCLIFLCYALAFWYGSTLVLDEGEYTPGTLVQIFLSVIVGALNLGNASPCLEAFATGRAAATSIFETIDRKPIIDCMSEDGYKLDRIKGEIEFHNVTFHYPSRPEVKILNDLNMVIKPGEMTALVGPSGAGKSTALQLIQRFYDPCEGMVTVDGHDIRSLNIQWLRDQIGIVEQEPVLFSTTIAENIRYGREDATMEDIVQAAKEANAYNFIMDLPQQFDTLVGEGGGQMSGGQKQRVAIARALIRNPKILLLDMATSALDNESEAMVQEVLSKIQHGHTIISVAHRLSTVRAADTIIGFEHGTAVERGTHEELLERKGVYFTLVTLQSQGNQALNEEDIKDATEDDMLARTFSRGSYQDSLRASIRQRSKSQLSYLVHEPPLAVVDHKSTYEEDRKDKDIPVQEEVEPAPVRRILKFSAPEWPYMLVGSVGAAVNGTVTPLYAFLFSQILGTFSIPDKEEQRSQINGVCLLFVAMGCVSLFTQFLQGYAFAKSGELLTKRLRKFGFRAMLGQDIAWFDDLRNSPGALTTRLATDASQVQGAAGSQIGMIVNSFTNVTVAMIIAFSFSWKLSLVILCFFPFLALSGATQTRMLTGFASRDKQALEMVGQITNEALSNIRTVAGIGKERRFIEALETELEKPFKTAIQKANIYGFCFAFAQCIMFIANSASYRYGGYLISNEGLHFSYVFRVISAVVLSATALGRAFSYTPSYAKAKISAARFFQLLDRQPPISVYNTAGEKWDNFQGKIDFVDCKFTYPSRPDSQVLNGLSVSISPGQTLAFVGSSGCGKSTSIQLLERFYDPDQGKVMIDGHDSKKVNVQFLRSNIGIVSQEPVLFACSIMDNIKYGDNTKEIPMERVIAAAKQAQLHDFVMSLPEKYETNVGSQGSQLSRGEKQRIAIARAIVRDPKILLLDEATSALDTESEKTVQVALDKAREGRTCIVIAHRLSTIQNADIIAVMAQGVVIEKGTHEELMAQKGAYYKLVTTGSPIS

With `O=C(C1CCCCC1)N1CC(=O)N2CCc3ccccc3C2C1` (stereo unspecified) [PRAZIQUANTEL], the IC50 was above 133 µM in data set [1], above 133 µM in [2], 67.1 µM in data set [5] and above 133 µM in data set [6]. Further, the Ratio in [3] turned out to be 0.094. Further, the concentration at 8 h in data set [4] came to 6300 nM. In data set [7], this compound gave an AUC at 8 h of 50.4 µM·h.
With `COc1ccccc1Oc1c(NS(=O)(=O)c2ccc(C(C)(C)C)cc2)nc(-c2ncccn2)nc1OCCO` [BOSENTAN], the Ratio in data set [8] came out at 0.032; in [11] it was 0.059; in data set [12] it was 0.061. For the same compound, in data set [9], the AUC at 12 h is 16.2 µM·h. Further, the IC50 in [2] is 42 µM; in [5], 23 µM; in data set [6], 22 µM. In [10], the Css was found to be 1347 nM.
Take `CC(=O)O[C@]1(C(C)=O)CC[C@H]2[C@@H]3C=C(C)C4=CC(=O)CC[C@]4(C)[C@H]3CC[C@@]21C` [MEGESTROL ACETATE]: the IC50 was above 133 µM in data set [1], above 133 µM in data set [2], 17.8 µM in [5] and above 133 µM in data set [6]. The compound also had an exposure (AUC) at 24 h in data set [13] of 35.8 µM·h. In data set [14], the Ratio worked out at 0.084. The concentration at 24 h in data set [15] is 1490 nM.
For the compound `CC(C)CN(C[C@@H](O)[C@H](Cc1ccccc1)NC(=O)O[C@H]1CCOC1)S(=O)(=O)c1ccc(N)cc1`, the IC50 in data set [1] is above 133 µM; in data set [2], above 133 µM; in data set [5], 44.8 µM; in data set [6] it was above 133 µM. The concentration at 12 h in data set [16] was determined as 4350 nM. Further, the Ratio in data set [17] worked out at 0.097. In data set [18], this compound yielded an AUC at 12 h of 52.2 µM·h.
For `CCc1nn(CCCN2CCN(c3cccc(Cl)c3)CC2)c(=O)n1CCOc1ccccc1` [NEFAZODONE], the results for the IC50 in data set [1], in data set [2] and in data set [6] were above 133 µM, above 133 µM and 71 µM, respectively. Also, in data set [19], the AUC at 24 h turned out to be 14.5 µM·h. The Ratio is 0.099 in [20] and 0.009 in data set [22]. In addition, the concentration at 24 h in data set [21] was found to be 604 nM.
